Data taken from patent publication US20110294789A1, “COMPOUNDS FOR RHO KINASE INHIBITION AND FOR IMPROVING LEARNING AND MEMORY” (AMNESTIX, INC., priority 2008, published 2011).
Entries after “also recorded” stand apart in the source; their conditions may differ.

What was measured:
over 400 kinases = experiment: KinomeScan competition binding assay, kinase specificity; conditions: 10 μM; competition of more than 50% regarded as inhibitory; FIG. 13A
Description: (§1) Based on a competition binding assay that quantitatively measures the ability of a test compound to compete with an immobilized, active-site directed ligand it is possible to scan the competitive effect of the test compound for a broad variety of kinases in parallel (KinomeScan, Ambit, San Diego, Calif., USA; Fabian et al., Nat. Biotechnol. 2005, 23, 329). Based on this analysis it is possible to assess the inhibitory specificity of a test compound. […] As result of the assay one obtains the percentage of competition of the active-site directed ligand for each of the over 400 kinases of the test due to the incubation with the test compounds. Competitions of more than 50% were regarded as significant indicating for inhibition of the particular kinase.

[1] = molecular target: T1, recombinant active rho kinase 2 (ROCK) (Homo sapiens, UniProt O75116); experiment: ROCK inhibition assay (ROCK assay kit, anti-phospho-MYPT1 detection); format: biochemical; conditions: test compounds 0.1 to 100 μM; compared to Fasudil in corresponding concentration; FIG. 12
T1 construct: purchased Upstate, Lake Placid, N.Y., USA (enzyme); Cell Biolabs Inc., San Diego (assay kit with substrate)
Method: The inhibitory effect of test compounds on rho kinase 2 (ROCK) was analyzed using recombinant active rho kinase 2 (Upstate, Lake Placid, N.Y., USA) and the a ROCK assay kit (Cell Biolabs Inc., San Diego, Calif., USA) following the manufacture's instruction. Recombinant rho kinase 2 was dissolved in kinase reaction buffer including the kinase substrate in the presence of the test compound. Test compounds were added in a final concentration of 0.1 to 100 μM. Assays without test compound served as control. […] Assays were incubated at 30° C. for 30-60 min and subsequently stopped by adding 50% of the reaction-volume of 0.5 M EDTA, pH 8.0. After washing steps phosphorylated kinase substrate was quantified using a specific anti-phospho-MYPT1 (Thr696) antibody and a HRP-conjugated secondary antibody.

[2] = tested on: Hippocampal primary neurons; experiment: Neurite outgrowth analysis; format: cell-based, rats; conditions: 1.5 μM or 15 μM, 2 days in culture; versus negative control and Fasudil; FIG. 15
Method: The effect of test compounds on neurite outgrowth can be assessed in vitro. Hippocampal primary neurons prepared from embryonic (E18) rats were cultured in Neurobasal medium (Invitrogen) enriched with B27, bFGF, Penicillin/Streptomycin, L-Glutamin. For the neurite outgrowth assay the medium is mixed with conditioned medium in a 1:1 ratio. The neurites were immunocytochemically stained using an antibody against the axonal marker neurofilament-light. Photographs were acquired at 40-fold magnification (Olympus IX81) and assembled to allow analysis of whole individual neurons. The test compounds 1-(8-methyl-5 isoquinoline-sulfonyl)homopiperazine and 1-(1-chloro-8-methoxy-5 isoquinoline-sulfonyl)homopiperazine were added to the medium in the final concentration of 1.5 μM or 15 μM 1 h after plating in comparison to adding water which served as negative control. […] After 2 days in culture the cells were fixed. Photographs and neurite tracing were performed in a blinded manner.

hippocampal slices = experiment: In vitro LTP analysis (theta burst stimulation, fEPSP slope); format: cell-based, Wistar rats
Description: Long-term potentiation (LTP) is an in vitro model for the assessment of memory function. Therefore, it allows analysis of test compounds, e.g. the compounds of the invention, e.g. 1-(8-methyl-5 isoquinoline-sulfonyl)homopiperazine and 1-(1-chloro-8-methoxy-5 isoquinoline-sulfonyl)homopiperazine, for memory enhancing potential. Experiments were done on hippocampal slices from 3-4 week-old Wistar rats. The rats were sacrificed by decapitation without prior anesthesia. Brains were quickly removed and soaked in ice cold artificial cerebrospinal fluid (ACSF) containing: NaCl (124 mM), KCl (5 mM), Na2HPO4 (1.2 mM), NaHCO3 (26 mM), CaCl2 (2 mM), MgSO4 (2 mM), and glucose (10 mM), that was continuously bubbled with carbogen (95% O2, 5% CO2). Slices were then cut at 400 μm thickness using a vibratome and incubated in ACSF at room temperature for at least 1 h before starting recordings. All compounds used were diluted in ACSF at the concentrations needed and were prepared fresh on the day of recording from 100 mM stock solutions. To assure proper solubility of the compounds, stock solutions were made with DMSO. For recording, slices were transferred to a 4-channel slice chamber (Synchroslice, Lohmann Research Equipment) that allows simultaneous recording of 4 brain slices. Each slice was placed in a separate submerged type slice chamber were it was continuously superfused with temperature controlled (34° C.) ACSF or ACSF at a rate of 2 ml/min. Under visual control by a camera system, a bipolar stimulation electrode (Rhoades) was placed in the Schaffer collaterals and a single biphasic electrical stimulus of a duration of 200 μs and an amplitude of 200 μA was applied at 0.05 Hz. A platinum/tungsten electrode was then lowered into the CA1 dendritic layer under visual control until stable amplitudes of the recorded fEPSP were achieved. After a recording period of at least 10 min, the input-output relationship between stimulus amplitude and fEPSP amplitude was achieved separately for each slice. […] To induce LTP, 10 theta bursts were applied. Each burst consisted of 4 biphasic stimuli of […] and 600 μA amplitude at a 10 ms interstimulus interval. The interburst interval was 200 ms. Each recording cycle started with a 15 min period in which electrical stimuli were applied at 0.05 Hz to assure stability of the fEPSP amplitude. Then, test the compound was washed in for a period of 30 min during which stimulation was continued at 0.05 Hz and fEPSPs were continuously recorded. LTP induction by theta burst stimulation was started 30 min after wash in. Recording was continued after LTP induction for at least 60 min, 30 min after LTP induction, compounds were washed out. All slices recorded simultaneously were treated with the same time schedule. From the recorded data, the amplitudes of the evoked fEPSP were automatically calculated by the recording software (Synchroslice data acquisition and analysis, LRE) as the negative peak of the postsynaptic signal with respect to baseline and plotted online. All recorded signals were digitally stored for later offline analysis, in particular for fEPSP negative slope calculation. From the stored single sweeps, the slope was calculated between 30% and 70% of the maximum fEPSP amplitude. To allow comparison of data obtained from different slices, fEPSP slopes were normalized to the control value (100%).
Effects induced by applied substances were tested for statistical significance using either the Student's t-test or the Mann-Whitney Rank Sum Test, significance was assumed if p<0.05. Measurements for each experimental condition were repeated six times. Results are given as means from n=5 slices and standard deviation (SD). […] This could be due to the activation of undesired kinases and/or pathways at this concentration. […]

PIM kinases = experiment: KinomeScan competition binding assay; conditions: 10 μM; competition of more than 50% regarded as inhibitory
Description: as §1

IRAK1 = molecular target: T2, IRAK1 (Homo sapiens, UniProt P51617); experiment: KinomeScan competition binding assay; conditions: 10 μM; competition of more than 50% regarded as inhibitory
T2 construct: purchased Ambit, San Diego, Calif., USA (KinomeScan)
Description: as §1

ROCK2 = molecular target: T3, ROCK2 (Homo sapiens, UniProt O75116); experiment: KinomeScan competition binding assay; conditions: 10 μM; compared to Fasudil
T3 construct: purchased Ambit, San Diego, Calif., USA (KinomeScan)
Description: as §1

[3] = tested on: undifferentiated PC12 cells; conditions: Zhang et al. 2006; cited from earlier work
[4] = Huentelman et al. 2009; WO 2008/019395; cited from earlier work

T1 sequence (O75116 whole entry): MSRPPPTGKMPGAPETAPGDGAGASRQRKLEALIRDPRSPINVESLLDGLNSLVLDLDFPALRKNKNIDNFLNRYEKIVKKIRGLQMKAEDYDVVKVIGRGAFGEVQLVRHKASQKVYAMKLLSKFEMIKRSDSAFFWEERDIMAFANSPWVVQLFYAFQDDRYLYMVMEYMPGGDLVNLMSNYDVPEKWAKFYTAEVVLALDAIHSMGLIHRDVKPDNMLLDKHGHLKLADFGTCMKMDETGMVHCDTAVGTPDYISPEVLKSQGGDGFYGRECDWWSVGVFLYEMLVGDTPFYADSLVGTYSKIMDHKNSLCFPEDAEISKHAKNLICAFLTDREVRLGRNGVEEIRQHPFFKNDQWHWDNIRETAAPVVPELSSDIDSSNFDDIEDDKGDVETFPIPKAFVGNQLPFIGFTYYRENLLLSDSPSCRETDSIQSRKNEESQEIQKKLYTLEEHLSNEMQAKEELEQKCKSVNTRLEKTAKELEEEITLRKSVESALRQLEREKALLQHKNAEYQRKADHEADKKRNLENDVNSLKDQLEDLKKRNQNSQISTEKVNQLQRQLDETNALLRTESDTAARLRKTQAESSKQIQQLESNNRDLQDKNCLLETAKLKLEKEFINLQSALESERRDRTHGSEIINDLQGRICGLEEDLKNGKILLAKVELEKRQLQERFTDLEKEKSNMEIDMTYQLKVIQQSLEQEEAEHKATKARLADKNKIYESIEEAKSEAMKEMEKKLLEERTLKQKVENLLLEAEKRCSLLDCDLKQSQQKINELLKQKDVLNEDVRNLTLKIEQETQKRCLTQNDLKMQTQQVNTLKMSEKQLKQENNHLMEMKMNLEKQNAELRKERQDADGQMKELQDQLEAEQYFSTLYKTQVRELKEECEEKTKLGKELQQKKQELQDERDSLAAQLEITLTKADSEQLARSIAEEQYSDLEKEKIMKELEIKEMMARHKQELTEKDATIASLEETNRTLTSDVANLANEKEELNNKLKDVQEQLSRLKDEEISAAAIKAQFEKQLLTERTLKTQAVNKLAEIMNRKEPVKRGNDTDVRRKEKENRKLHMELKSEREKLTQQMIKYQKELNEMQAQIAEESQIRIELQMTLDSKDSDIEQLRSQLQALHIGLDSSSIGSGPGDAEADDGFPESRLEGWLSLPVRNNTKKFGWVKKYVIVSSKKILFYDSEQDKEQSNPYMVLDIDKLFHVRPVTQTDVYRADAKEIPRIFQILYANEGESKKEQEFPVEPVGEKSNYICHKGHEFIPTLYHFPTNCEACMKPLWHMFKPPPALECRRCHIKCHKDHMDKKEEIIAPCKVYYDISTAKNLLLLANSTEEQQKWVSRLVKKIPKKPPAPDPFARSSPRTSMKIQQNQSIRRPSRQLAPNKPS
T3 sequence (O75116 whole entry): as above
T2 sequence (P51617 whole entry): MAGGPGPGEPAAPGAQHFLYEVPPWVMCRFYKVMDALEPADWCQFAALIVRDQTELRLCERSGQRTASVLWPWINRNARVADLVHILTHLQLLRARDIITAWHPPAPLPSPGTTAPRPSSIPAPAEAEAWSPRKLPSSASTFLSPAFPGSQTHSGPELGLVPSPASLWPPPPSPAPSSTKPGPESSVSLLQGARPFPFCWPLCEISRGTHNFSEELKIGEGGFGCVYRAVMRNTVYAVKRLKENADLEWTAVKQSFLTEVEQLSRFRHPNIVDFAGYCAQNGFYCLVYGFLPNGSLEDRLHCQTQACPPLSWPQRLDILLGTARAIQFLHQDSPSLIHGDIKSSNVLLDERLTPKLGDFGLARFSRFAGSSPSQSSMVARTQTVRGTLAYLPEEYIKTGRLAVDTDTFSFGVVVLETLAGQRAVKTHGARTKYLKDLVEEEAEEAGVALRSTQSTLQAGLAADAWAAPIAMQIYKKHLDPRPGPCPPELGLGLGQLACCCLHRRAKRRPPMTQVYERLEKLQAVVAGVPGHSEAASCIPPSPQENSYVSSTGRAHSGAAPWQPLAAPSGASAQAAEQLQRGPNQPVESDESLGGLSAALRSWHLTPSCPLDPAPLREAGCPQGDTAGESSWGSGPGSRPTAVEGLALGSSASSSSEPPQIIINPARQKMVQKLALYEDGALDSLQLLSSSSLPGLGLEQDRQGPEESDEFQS

Compound | kinase specificity / kinase interaction spectrum (over 400 kinases) | ROCK inhibition (rho kinase 2 activity) [1] | neurite outgrowth promoting activity [2] | enhancement of LTP (overall conclusion) (hippocampal slices) | effect on LTP (hippocampal slices; 1 μM) | effect on LTP (hippocampal slices; 10 μM) | effect on LTP (hippocampal slices; 100 μM) | synaptic activity upon removal of the substance (hippocampal slices; 100 μM, after wash out) | inhibitory effect for PIM kinases (PIM kinases) | inhibitory effect for IRAK1 (IRAK1) | affinity to ROCK2 (ROCK2) | neurite outgrowth [3] | learning and memory [4]
COc1ccc(S(=O)(=O)N2CCCNCC2)c2ccnc(Cl)c12 [1-(1-chloro-8-methoxy-5 isoquinoline-sulfonyl)homopiperazine] | much more specific ROCK inhibitor than Fasudil; also recorded: very specific ROCK inhibitor | enhanced ROCK inhibition compared to Fasudil | did not significantly promote neurite outgrowth | significant enhancement of LTP | clearly superior LTP stimulating effect compared to fasudil | LTP induction is unaltered but the maintenance seems to be impaired | LTP induction is blocked completely | clear rebound of synaptic activity | mainly inhibitory effect only for PIM kinases and IRAK1 | mainly inhibitory effect only for PIM kinases and IRAK1 | – | – | –
Cc1ccc(S(=O)(=O)N2CCCNCC2)c2ccncc12 [1-(8-methyl-5 isoquinoline-sulfonyl)homopiperazine] | broader kinase interaction spectrum comparable to that of Fasudil | enhanced ROCK inhibition compared to Fasudil | superior neurite outgrowth promoting activity | – | blocks LTP | – | the ability of LTP induction is re-established | – | – | – | much stronger affinity to ROCK2 than Fasudil | – | –
O=S(=O)(c1cccc2cnccc12)N1CCCNCC1 [Fasudil] | – | – | – | – | – | – | – | – | – | – | – | increase neurite outgrowth | can enhance learning and memory
